Assay results published in patent publication US9238807B2, “Peptide increasing fusiogenic capacity of a gamete” (UNIVERSITE PARIS 13, priority 2003, dated 2016).
Positions of bridges follow the written chain, without caps; N, C: chain ends. Residues, ends and D or L forms follow the SMILES beside them. No end group written: not given here.

Assays:
human oocyte membrane = experiment: Detection of biotinylated FEEc peptide at the surface of human oocytes (immunofluorescence, confocal microscopy); format: binding; conditions: 200 μM biotinylated peptide, 45 minutes, FIG. 1
Protocol: (§1) Patients donated said oocytes for research purposes and signed a consent form approved by the Institutional Review Board of the Aulnay-sous-Bois hospital.
(§2) To maintain the oocyte membrane as close as possible to its natural state, the inventors removed the zona pellucida mechanically with microsurgical scissors.
The oocytes were incubated with 200 μM biotinylated FEEc peptide for 45 minutes.
The zona pellucida was mechanically removed from the oocytes which were then incubated for 45 minutes with […] biotinylated peptide. The FEEc peptide was detected with a mouse anti-biotin antibody recognized by a biotinylated anti-mouse immunoglobulin antibody then by streptavidin-FITC. The oocytes were then mounted in immunomount between the coverslip and the slide and examined under a confocal microscope, B: superimposition of sections corresponding to a hemi-oocyte.

[1] = tested on: human zona-free oocytes and spermatozoa; format: cell-based
Protocol: as §1
These oocytes aged 48 hours or matured in vitro were not or were no longer capable of producing an embryo. Moreover, the polyspermy blocking mechanism which ensures that the embryo will be diploid is located in the zona pellucida of the oocyte. By removing the zona pellucida of these oocytes, this protective mechanism is abolished, leading to nonviable polyspermic zygotes in the event of gamete fusion. Finally, as embryo development occurs inside the zona pellucida for the first six days, the absence of the latter precludes said development from taking place.
as §2
Sperm from fertile donors was collected after three days of abstinence and prepared as for IVF. […]
Functional tests of inhibition of fusion were carried out in conditions similar to those used for IVF, that is, in conditions sufficiently close to physiological conditions since they enable pregnancy and fetuses. […] The slides were analyzed under a Zeiss Axiophot microscope equipped with a camera connected to Imaging System Package image analysis software (Applied Imaging, Newcastle-upon-Tyne, UK). […]

Compound | labelling of the oocyte membrane with the peptide (human oocyte membrane) | toxic effect on oocytes [1]
biotinylated FEEc: FEEc cyclic peptide labelled with biotin for detection on oocytes (CSFEEC; disulfide 1-6 (inferred); also: biotinylated (position not given here)) | labelling of the membrane | 
N[C@H]1CSSC[C@@H](C(=O)O)NC(=O)[C@H](CCC(=O)O)NC(=O)[C@H](CCC(=O)O)NC(=O)[C@H](Cc2ccccc2)NC(=O)[C@H](CO)NC1=O [FEEc, CSFEEC] (H-CSFEEC-OH; disulfide 1-6) |  | no toxic effect on oocytes
